Laboratory results as given in the NIST ThermoML archive (doi:10.1016/j.fluid.2009.02.007).
± gives the expanded uncertainty stated by the source.

Experiment: osmotic coefficient (dimensionless); mn = molality of the nth substance listed, in mol/kg
Conditions: 101 kPa, Liquid, Vapor pressure osmometry

CCCCn1cc[n+](C)c1.COS(=O)(=O)[O-] [1-butyl-3-methylimidazolium methyl sulfate] + O
osmotic coefficient
Conditions | 298.15 K | 308.15 K | 318.15 K | 328.15 K
m1 = 0.0132 | 0.923 ± 0.004 | 0.937 ± 0.003 | 0.968 ± 0.002 | 0.987 ± 0.001
m1 = 0.0225 | 0.895 ± 0.005 | 0.921 ± 0.004 | 0.958 ± 0.002 | 0.977 ± 0.001
m1 = 0.0328 | 0.884 ± 0.006 | 0.897 ± 0.005 | 0.94 ± 0.01 | 0.966 ± 0.002
m1 = 0.0434 | 0.863 ± 0.007 | 0.885 ± 0.006 | 0.896 ± 0.005 | 0.959 ± 0.002
m1 = 0.0634 | 0.837 ± 0.008 | 0.872 ± 0.006 | 0.882 ± 0.006 | 0.896 ± 0.005
m1 = 0.078 | 0.821 ± 0.009 | 0.836 ± 0.008 | 0.877 ± 0.006 | 0.887 ± 0.006
m1 = 0.1205 | 0.809 ± 0.01 | 0.813 ± 0.009 | 0.839 ± 0.008 | 0.874 ± 0.006
m1 = 0.157 | 0.791 ± 0.01 | 0.809 ± 0.01 | 0.839 ± 0.008 | 0.858 ± 0.007
m1 = 0.1944 | 0.78 ± 0.011 | 0.802 ± 0.01 | 0.814 ± 0.009 | 0.857 ± 0.007
m1 = 0.2801 | 0.767 ± 0.012 | 0.779 ± 0.011 | 0.802 ± 0.01 | 0.84 ± 0.008
m1 = 0.3552 | 0.741 ± 0.013 | 0.758 ± 0.012 | 0.775 ± 0.011 | 0.81 ± 0.01
m1 = 0.4687 | 0.721 ± 0.014 | 0.749 ± 0.013 | 0.762 ± 0.012 | 0.8 ± 0.01
m1 = 0.7057 | 0.71 ± 0.015 | 0.74 ± 0.013 | 0.756 ± 0.012 | 0.786 ± 0.011
m1 = 0.9552 | 0.698 ± 0.015 | 0.716 ± 0.014 | 0.732 ± 0.013 | 0.76 ± 0.01
m1 = 1.44 | 0.692 ± 0.015 | 0.708 ± 0.015 | 0.73 ± 0.014 | 0.752 ± 0.012
m1 = 2.177 | 0.693 ± 0.015 | 0.7 ± 0.015 | 0.726 ± 0.014 | 0.743 ± 0.013

CCCCn1cc[n+](C)c1.F[B-](F)(F)F [1-butyl-3-methylimidazolium tetrafluoroborate] + O
osmotic coefficient
Conditions | 298.15 K | 308.15 K | 318.15 K | 328.15 K
m1 = 0.012 | 1.023 ± 0.001 | 1.009 ± 0.001 | 1.006 ± 0.001 | 0.994 ± 0.001
m1 = 0.0223 | 0.994 ± 0.001 | 0.974 ± 0.001 | 0.986 ± 0.001 | 0.978 ± 0.001
m1 = 0.0369 | 0.987 ± 0.001 | 0.959 ± 0.002 | 0.955 ± 0.002 | 0.965 ± 0.002
m1 = 0.045 | 0.956 ± 0.002 | 0.956 ± 0.002 | 0.96 ± 0.002 | 0.959 ± 0.002
m1 = 0.0652 | 0.952 ± 0.002 | 0.926 ± 0.004 | 0.937 ± 0.003 | 0.92 ± 0.004
m1 = 0.0855 | 0.862 ± 0.007 | 0.879 ± 0.006 | 0.892 ± 0.005 | 0.9 ± 0.005
m1 = 0.1058 | 0.854 ± 0.007 | 0.872 ± 0.006 | 0.887 ± 0.006 | 0.883 ± 0.006
m1 = 0.1629 | 0.825 ± 0.009 | 0.823 ± 0.009 | 0.826 ± 0.009 | 0.839 ± 0.008
m1 = 0.2108 | 0.804 ± 0.01 | 0.787 ± 0.011 | 0.802 ± 0.01 | 0.797 ± 0.01
m1 = 0.2695 | 0.749 ± 0.013 | 0.766 ± 0.012 | 0.766 ± 0.012 | 0.772 ± 0.011
m1 = 0.3284 | 0.699 ± 0.015 | 0.708 ± 0.015 | 0.748 ± 0.013 | 0.761 ± 0.012
m1 = 0.4307 | 0.677 ± 0.016 | 0.685 ± 0.016 | 0.693 ± 0.015 | 0.726 ± 0.014
m1 = 0.533 | 0.648 ± 0.018 | 0.666 ± 0.017 | 0.673 ± 0.016 | 0.685 ± 0.016
m1 = 0.6375 | 0.619 ± 0.019 | 0.622 ± 0.019 | 0.634 ± 0.018 | 0.647 ± 0.018
m1 = 0.7233 | 0.575 ± 0.021 | 0.587 ± 0.021 | 0.61 ± 0.02 | 0.632 ± 0.018
m1 = 0.9322 | 0.523 ± 0.024 | 0.545 ± 0.023 | 0.564 ± 0.022 | 0.589 ± 0.021
m1 = 1.292 | 0.462 ± 0.027 | 0.495 ± 0.025 | 0.508 ± 0.025 | 0.517 ± 0.024
m1 = 2.066 | 0.392 ± 0.03 | 0.396 ± 0.03 | 0.412 ± 0.029 | 0.415 ± 0.029

CCOS(=O)(=O)[O-].CCn1cc[n+](C)c1 [1-ethyl-3-methylimidazolium ethyl sulfate] + O
osmotic coefficient
Conditions | 298.15 K | 308.15 K | 318.15 K | 328.15 K
m1 = 0.0086 | 0.973 ± 0.001 | 0.981 ± 0.001 | 1.019 ± 0.001 | 1.018 ± 0.001
m1 = 0.0185 | 0.957 ± 0.002 | 0.943 ± 0.003 | 0.972 ± 0.002 | 0.975 ± 0.001
m1 = 0.0284 | 0.937 ± 0.003 | 0.921 ± 0.004 | 0.934 ± 0.003 | 0.955 ± 0.002
m1 = 0.0376 | 0.921 ± 0.004 | 0.917 ± 0.004 | 0.93 ± 0.01 | 0.936 ± 0.003
m1 = 0.057 | 0.871 ± 0.006 | 0.862 ± 0.007 | 0.868 ± 0.007 | 0.886 ± 0.006
m1 = 0.0749 | 0.852 ± 0.007 | 0.862 ± 0.007 | 0.859 ± 0.007 | 0.858 ± 0.007
m1 = 0.0938 | 0.83 ± 0.009 | 0.838 ± 0.008 | 0.845 ± 0.008 | 0.85 ± 0.008
m1 = 0.1269 | 0.815 ± 0.009 | 0.817 ± 0.0092 | 0.831 ± 0.008 | 0.842 ± 0.008
m1 = 0.1704 | 0.782 ± 0.011 | 0.797 ± 0.01 | 0.813 ± 0.009 | 0.815 ± 0.009
m1 = 0.2087 | 0.774 ± 0.011 | 0.779 ± 0.011 | 0.797 ± 0.01 | 0.815 ± 0.009
m1 = 0.2648 | 0.754 ± 0.012 | 0.764 ± 0.012 | 0.797 ± 0.01 | 0.8 ± 0.01
m1 = 0.3276 | 0.751 ± 0.012 | 0.766 ± 0.012 | 0.793 ± 0.01 | 0.796 ± 0.01
m1 = 0.4235 | 0.736 ± 0.013 | 0.755 ± 0.012 | 0.776 ± 0.011 | 0.787 ± 0.011
m1 = 0.5106 | 0.724 ± 0.014 | 0.745 ± 0.013 | 0.772 ± 0.011 | 0.781 ± 0.011
m1 = 0.6979 | 0.712 ± 0.014 | 0.727 ± 0.014 | 0.742 ± 0.013 | 0.755 ± 0.012
m1 = 0.8919 | 0.706 ± 0.015 | 0.721 ± 0.014 | 0.73 ± 0.014 | 0.747 ± 0.013
m1 = 1.12 | 0.697 ± 0.015 | 0.711 ± 0.014 | 0.717 ± 0.014 | 0.729 ± 0.014
m1 = 1.606 | 0.696 ± 0.015 | 0.707 ± 0.015 | 0.715 ± 0.014 | 0.719 ± 0.014
m1 = 1.889 | 0.694 ± 0.015 | 0.707 ± 0.015 | 0.717 ± 0.014 | 0.726 ± 0.014
m1 = 2.763 | 0.733 ± 0.013 | 0.747 ± 0.013 | 0.759 ± 0.012 | 0.766 ± 0.012
